Assay results reported in patent US8101603B2, “Tyrosine kinase inhibitors” (Merck Sharp & Dohme Corp., priority 2006, dated 2012).

Target: T1, human c-Met (Homo sapiens, UniProt P08581)
T1 construct: Recombinant GST-tagged cytosolic domains of human c-Met; 6xHis; made in house; host or cells: Sf9 or Sf21 insect cells (baculovirus, Pharmingen pGcGHLT vector)
Experiment: In vitro c-Met kinase assay (homogeneous time-resolved fluorescence)
Assay type: biochemical
Conditions: recombinant GST-tagged c-Met cytosolic domain, 50 μM MgATP, HTRF
Excerpt: Recombinant GST-tagged cytosolic domains of human c-Met and other receptor tyrosine kinases including mouse c-Met, human Ron, KDR, IGFR, EGFR, FGFR, Mer, TrkA and Tie2 are used to determine whether the compounds of the instant invention modulate the enzymatic activities of these kinases.
Soluble recombinant GST-tagged cytosolic domains of c-Met and other receptor tyrosine kinases are expressed in a baculovirus system (Pharmingen) according to a protocol recommended by the manufacturer. The c-DNA encoding each cytosolic domain is subcloned into a baculovirus expression vector (pGcGHLT-A, B or C, Pharmingen) containing an in frame 6× histidine tag and a GST tag. The resulting plasmid construct and BaculoGold baculovirus DNA (Pharmingen) are used to co-transfect Sf9 or Sf21 insect cells. After confirming expression of GST-tagged kinase fusion, a high titer recombinant baculovirus stock is produced, expression conditions are optimized, and a scaled up expression of rat KDR-GST fusion is performed. The fusion kinase is then purified from the insect cell lysate by affinity chromatography using glutathione agarose (Pharmingen). The purified protein is dialyzed against 50% glycerol, 2 mM DTT, 50 mM Tris-HCl (pH 7.4) and stored at −20° C. The protein concentrations of the fusion proteins are determined using Coomassie Plus Protein Assay (Pierce) with BSA as standard.
The procedure for determining the potency of a compound to inhibit c-Met kinase comprises the following steps: • 1. Prepare 3-fold serial diluted compound solutions in 100% dimethyl sulfoxide (DMSO) at 20× of the desired final concentrations in a 96 well plate. • 2. […] In a black assay plate, add 2.5 μl of compound solution (or DMSO) and 37.5 μl of master reaction mix per well. Initiate the kinase reaction by adding 10 μl of 0.25 mM MgATP per well. Allow the reactions to proceed for 80 min at room temperature. The final conditions for the reaction are 0.2 nM c-Met, 0.5 μM substrate, 50 μM MgATP, 5 mM MgCl2, 100 mM NaCl, 2 mM DTT, 0.1 mg/ml BSA, 50 mM Tris (pH 7.4) and 5% DMSO. • 4. […] Read HTRF signals on a Victor reader (PerkinElmer) in HTRF mode after 60 min. • 6.

T1 sequence (P08581 956-1390 limits assumed): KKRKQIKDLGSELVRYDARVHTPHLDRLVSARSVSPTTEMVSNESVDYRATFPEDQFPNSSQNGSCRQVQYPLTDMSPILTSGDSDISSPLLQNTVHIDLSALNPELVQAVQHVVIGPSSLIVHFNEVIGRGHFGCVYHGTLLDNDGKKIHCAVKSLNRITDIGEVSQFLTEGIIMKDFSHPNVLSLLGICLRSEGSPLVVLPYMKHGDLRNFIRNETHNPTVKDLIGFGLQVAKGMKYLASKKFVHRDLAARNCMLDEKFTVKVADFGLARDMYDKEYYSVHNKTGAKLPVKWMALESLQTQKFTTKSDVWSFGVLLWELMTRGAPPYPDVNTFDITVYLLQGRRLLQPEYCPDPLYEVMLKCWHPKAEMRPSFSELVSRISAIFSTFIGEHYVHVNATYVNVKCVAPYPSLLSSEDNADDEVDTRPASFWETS

IC50, ≤ 50 µM:
CN(C)S(=O)(=O)C(F)(F)c1ccc2ccc3ncc(-c4cnn(C)c4)cc3c(=O)c2c1 [Compound 4-1, 1,1-Difluoro-N,N-dimethyl-1-[3-(1-methyl-1H-pyrazol-4-yl)-5-oxo-5H-benzo[4,5]cyclohepta[1,2-b]pyridin-7-yl]methanesulfonamide]
CN(C)S(=O)(=O)C(F)c1ccc2ccc3ncc(-c4cnn(C)c4)cc3c(=O)c2c1 (stereo not shown) [Compound 4-2, 1-Fluoro-N,N-dimethyl-1-[3-(1-methyl-1H-pyrazol-4-yl)-5-oxo-5H-benzo[4,5]cyclohepta[1,2-b]pyridin-7-yl]methanesulfonamide]
Cn1cc(-c2cnc3ccc4ccc(CS(=O)(=O)Nc5cccnc5)cc4c(=O)c3c2)cn1 [Compound 5-5, 1-[3-(1-methyl-1H-pyrazol-4-yl)-5-oxo-5H-benzo[4,5]cyclohepta[1,2-b]pyridin-7-yl]-N-pyridin-3-ylmethanesulfonamide]
CC(c1ccc2ccc3ncc(-c4cnn(C)c4)cc3c(=O)c2c1)S(=O)(=O)N(C)c1ccccc1 (stereo not shown) [Compound 7-1, N-methyl-1-[3-(1-methyl-1H-pyrazol-4-yl)-5-oxo-5H-benzo[4,5]cyclohepta[1,2-b]pyridin-7-yl]-N-phenylethanesulfonamide]
